Assay results as given in patent US20240308976A1, “COMPOUNDS THAT MEDIATE PROTEIN DEGRADATION AND USES THEREOF” (Monte Rosa Therapeutics, Inc., priority 2021, published 2024).

What was measured:
CRBN-DDB1 = CRBN-DDB1 (Homo sapiens, UniProt Q96SW2); assay: Compound binding to CRBN by HTRF assay; details: CRBN-DDB1 2.5 nM, Cy5-Thalidomide 100 nM, 30 min at ambient temperature; read-out: HTRF Class (Cereblon binding, HTRF IC50)
How it was run: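 Cy5-thalidomide (100 nM) displacement from His-tagged CRBN-DDB1 (2.5 nM) read by terbium-cryptate HTRF (665/620 nm), in 20 mM HEPES, 20 mM NaCl, 0.2 mM TCEP, 0.2 mM EDTA, 0.005% Tween20. Compounds tested as 10-point 1:3 series, 30 min at ambient temperature. Signal normalised to DMSO and lenalidomide controls; IC50 fitted, Ki by Cheng-Prusoff.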

GSPT1 = target: T1, GSPT1 (Homo sapiens, UniProt P15170+Q96SW2); assay: Immunofluorescence assay for activity to degrade GSPT1 in CAL-51 cells; format: cell-based; details: 6 h treatment, read-out: IF Class (GSPT1 degradation, DC50)
T1 construct: CAL-51 cells were purchased from DSMZ (cat. Number ACC302); host or cells: CAL-51
T1 sequence (P15170 whole entry): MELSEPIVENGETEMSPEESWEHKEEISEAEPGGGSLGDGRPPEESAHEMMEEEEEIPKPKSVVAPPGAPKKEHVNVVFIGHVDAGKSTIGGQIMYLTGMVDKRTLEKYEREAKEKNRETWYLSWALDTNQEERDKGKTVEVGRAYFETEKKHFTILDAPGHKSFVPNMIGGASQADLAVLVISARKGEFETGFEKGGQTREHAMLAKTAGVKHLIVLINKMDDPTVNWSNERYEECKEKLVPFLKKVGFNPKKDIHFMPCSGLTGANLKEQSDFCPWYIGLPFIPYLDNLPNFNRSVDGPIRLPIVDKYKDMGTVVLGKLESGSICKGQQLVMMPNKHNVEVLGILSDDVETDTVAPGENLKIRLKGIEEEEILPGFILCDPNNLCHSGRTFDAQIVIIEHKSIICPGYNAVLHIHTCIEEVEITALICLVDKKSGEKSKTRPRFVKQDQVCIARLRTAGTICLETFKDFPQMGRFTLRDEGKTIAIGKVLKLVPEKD
T1 sequence (Q96SW2 whole entry): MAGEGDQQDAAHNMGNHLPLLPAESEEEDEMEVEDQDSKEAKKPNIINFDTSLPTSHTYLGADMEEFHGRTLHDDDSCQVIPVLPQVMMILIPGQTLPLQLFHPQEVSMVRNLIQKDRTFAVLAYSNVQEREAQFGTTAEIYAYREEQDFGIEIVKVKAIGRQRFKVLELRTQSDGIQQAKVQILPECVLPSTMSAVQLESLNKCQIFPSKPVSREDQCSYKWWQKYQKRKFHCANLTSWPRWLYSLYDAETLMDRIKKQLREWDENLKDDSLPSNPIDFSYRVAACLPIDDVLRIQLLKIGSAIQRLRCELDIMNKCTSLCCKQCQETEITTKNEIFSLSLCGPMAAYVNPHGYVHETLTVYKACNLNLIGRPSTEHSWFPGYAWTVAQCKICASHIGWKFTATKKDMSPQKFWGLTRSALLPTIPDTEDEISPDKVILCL
T1 sequence (Q16531 2-1140 partner limits assumed): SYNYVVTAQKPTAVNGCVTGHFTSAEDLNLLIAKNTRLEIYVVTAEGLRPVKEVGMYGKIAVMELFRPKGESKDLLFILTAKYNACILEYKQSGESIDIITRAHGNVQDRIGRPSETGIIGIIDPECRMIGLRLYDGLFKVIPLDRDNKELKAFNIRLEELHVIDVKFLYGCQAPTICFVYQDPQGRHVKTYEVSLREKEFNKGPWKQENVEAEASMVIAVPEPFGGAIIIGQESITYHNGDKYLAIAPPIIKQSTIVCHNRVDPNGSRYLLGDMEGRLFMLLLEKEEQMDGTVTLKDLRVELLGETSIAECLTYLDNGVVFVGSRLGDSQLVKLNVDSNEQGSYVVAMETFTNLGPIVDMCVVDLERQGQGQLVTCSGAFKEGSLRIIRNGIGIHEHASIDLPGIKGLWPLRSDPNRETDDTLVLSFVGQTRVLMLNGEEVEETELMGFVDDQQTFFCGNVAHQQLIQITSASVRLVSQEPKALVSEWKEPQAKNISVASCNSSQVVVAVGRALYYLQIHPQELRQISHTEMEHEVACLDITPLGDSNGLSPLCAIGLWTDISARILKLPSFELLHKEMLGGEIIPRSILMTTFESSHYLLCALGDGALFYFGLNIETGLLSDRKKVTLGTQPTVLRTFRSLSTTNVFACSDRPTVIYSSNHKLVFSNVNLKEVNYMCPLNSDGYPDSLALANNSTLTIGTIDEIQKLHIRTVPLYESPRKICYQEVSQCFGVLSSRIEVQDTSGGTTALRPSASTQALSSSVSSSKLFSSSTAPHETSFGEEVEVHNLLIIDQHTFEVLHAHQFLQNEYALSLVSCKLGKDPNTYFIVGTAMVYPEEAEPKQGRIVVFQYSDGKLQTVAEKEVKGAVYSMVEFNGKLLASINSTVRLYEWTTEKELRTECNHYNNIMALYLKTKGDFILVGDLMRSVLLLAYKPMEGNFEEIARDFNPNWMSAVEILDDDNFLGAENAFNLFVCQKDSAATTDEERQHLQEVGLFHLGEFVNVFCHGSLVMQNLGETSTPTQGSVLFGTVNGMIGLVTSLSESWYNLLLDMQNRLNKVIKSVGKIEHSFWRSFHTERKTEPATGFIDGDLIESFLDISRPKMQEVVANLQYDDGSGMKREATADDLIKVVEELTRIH
How it was run: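 CAL-51 cells treated 6 h with compound (30 μM to 0.1 nM), fixed, immunostained for GSPT1 with DAPI and phalloidin counterstains, imaged by high-content microscopy. Mean per-cell GSPT1 intensity normalized to controls; DC50 by non-linear regression.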

Sequence of CRBN-DDB1 (Q96SW2 whole entry): as the sequence (Q96SW2 whole entry) above
Sequence of CRBN-DDB1 (Q16531 whole entry partner): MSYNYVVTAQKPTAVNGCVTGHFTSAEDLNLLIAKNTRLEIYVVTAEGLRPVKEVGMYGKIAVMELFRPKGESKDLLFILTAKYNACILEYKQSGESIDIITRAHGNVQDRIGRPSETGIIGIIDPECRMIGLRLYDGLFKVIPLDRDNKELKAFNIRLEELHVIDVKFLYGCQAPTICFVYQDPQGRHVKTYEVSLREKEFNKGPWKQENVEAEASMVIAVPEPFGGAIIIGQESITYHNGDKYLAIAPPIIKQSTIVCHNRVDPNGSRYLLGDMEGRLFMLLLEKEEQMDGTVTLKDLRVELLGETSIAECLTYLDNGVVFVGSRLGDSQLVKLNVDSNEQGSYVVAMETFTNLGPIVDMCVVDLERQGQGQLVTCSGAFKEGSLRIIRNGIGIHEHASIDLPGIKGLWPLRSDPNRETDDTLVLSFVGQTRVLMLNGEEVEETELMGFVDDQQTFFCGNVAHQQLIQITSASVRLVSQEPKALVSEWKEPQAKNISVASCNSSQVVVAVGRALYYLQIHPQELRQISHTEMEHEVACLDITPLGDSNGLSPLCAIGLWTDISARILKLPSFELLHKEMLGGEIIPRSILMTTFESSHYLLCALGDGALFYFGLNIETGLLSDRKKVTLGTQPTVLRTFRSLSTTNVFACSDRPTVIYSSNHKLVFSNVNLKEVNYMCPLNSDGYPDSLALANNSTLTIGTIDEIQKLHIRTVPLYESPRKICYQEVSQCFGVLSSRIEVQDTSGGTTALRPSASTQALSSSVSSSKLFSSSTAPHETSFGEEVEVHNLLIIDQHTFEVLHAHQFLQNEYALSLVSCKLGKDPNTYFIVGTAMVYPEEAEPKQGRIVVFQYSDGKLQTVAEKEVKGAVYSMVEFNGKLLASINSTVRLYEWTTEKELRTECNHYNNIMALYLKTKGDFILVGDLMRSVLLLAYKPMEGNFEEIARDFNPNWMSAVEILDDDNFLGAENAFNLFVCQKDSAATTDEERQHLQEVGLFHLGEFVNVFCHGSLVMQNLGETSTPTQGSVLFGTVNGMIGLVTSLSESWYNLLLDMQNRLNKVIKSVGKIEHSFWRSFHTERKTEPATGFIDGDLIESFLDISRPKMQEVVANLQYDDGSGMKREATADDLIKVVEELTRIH

IC50 (CRBN-DDB1)	DC50 (GSPT1)	SMILES
100 to 1000 nM	30 to 300 nM	CCCCNC(=O)OC1CN(c2cc(F)c(C3CCC(=O)NC3=O)c(F)c2)C1 (stereo not shown) [Compound 131, 1-(4-(2,6-dioxopiperidin-3-yl)-3,5-difluorophenyl)azetidin-3-yl butylcarbamate]
100 to 1000 nM	> 300 nM	O=C1CCC(c2c(F)cc(N3CC(OC(=O)NC4CC4)C3)cc2F)C(=O)N1 (stereo not shown) [Compound 86, 1-(4-(2,6-dioxopiperidin-3-yl)-3,5-difluorophenyl)azetidin-3-yl cyclopropylcarbamate]
100 to 1000 nM	> 300 nM	CC(C)(C)NC(=O)OC1CN(c2cc(F)c(C3CCC(=O)NC3=O)c(F)c2)C1 (stereo not shown) [Compound 89, 1-(4-(2,6-dioxopiperidin-3-yl)-3,5-difluorophenyl)azetidin-3-yl tert-butylcarbamate]
≤ 100 nM	≤ 30 nM	C[C@@H]1CCCN1c1ccc(NC(=O)NC2CN(c3cc(F)c(C4CCC(=O)NC4=O)c(F)c3)C2)cn1 (stereo partly drawn) [Compound 30, 1-(1-(4-(2,6-dioxopiperidin-3-yl)-3,5-difluorophenyl)azetidin-3-yl)-3-(6-((R)-2-methylpyrrolidin-1-yl)pyridin-3-yl)urea]
≤ 100 nM	30 to 300 nM	O=C1CCC(c2c(F)cc(N3CC(OC(=O)NCc4ccccc4)C3)cc2F)C(=O)N1 (stereo not shown) [Compound 137, 1-(4-(2,6-dioxopiperidin-3-yl)-3,5-difluorophenyl)azetidin-3-yl benzylcarbamate]
> 1000 nM	> 300 nM	COc1c(N2CC(OC(=O)Nc3ccc(C)c(Cl)c3)C2)ccc(C2CCC(=O)NC2=O)c1Cl (stereo not shown) [Compound 59, 1-(3-chloro-4-(2,6-dioxopiperidin-3-yl)-2-methoxyphenyl)azetidin-3-yl (3-chloro-4-methylphenyl)carbamate]
100 to 1000 nM	≤ 30 nM	O=C1CCC(c2c(F)cc(N3CC(NC(=O)N[C@H]4C[C@H](c5ccccc5)C4)C3)cc2F)C(=O)N1 (stereo partly drawn) [Compound 77, 1-(1-(4-(2,6-dioxopiperidin-3-yl)-3,5-difluorophenyl)azetidin-3-yl)-3-((1R,3R)-3-phenylcyclobutyl)urea]
100 to 1000 nM	30 to 300 nM	Cc1cc(C#N)cc(NC(=O)OC2CN(c3cc(F)c(C4CCC(=O)NC4=O)c(F)c3)C2)c1 (stereo not shown) [Compound 49, 1-(4-(2,6-dioxopiperidin-3-yl)-3,5-difluorophenyl)azetidin-3-yl (3-cyano-5-methylphenyl) carbamate]
100 to 1000 nM	≤ 30 nM	Cc1cc(NC(=O)OC2CN(c3cc(F)c(C4CCC(=O)NC4=O)c(F)c3)C2)cc(C)c1C#N (stereo not shown) [Compound 48, 1-(4-(2,6-dioxopiperidin-3-yl)-3,5-difluorophenyl)azetidin-3-yl (4-cyano-3,5-dimethylphenyl) carbamate]
≤ 100 nM	30 to 300 nM	O=C1CCC(c2c(F)cc(N3CC(NC(=O)Nc4cc(OC(F)(F)F)ccn4)C3)cc2F)C(=O)N1 (stereo not shown) [Compound 27, 1-(1-(4-(2,6-dioxopiperidin-3-yl)-3,5-difluorophenyl)azetidin-3-yl)-3-(4-(trifluoromethoxy)pyridin-2-yl)urea]
100 to 1000 nM	30 to 300 nM	CC1(c2ccc(NC(=O)OC3CN(c4cc(F)c(C5CCC(=O)NC5=O)c(F)c4)C3)cc2)CC1 (stereo not shown) [Compound 58, 1-(4-(2,6-dioxopiperidin-3-yl)-3,5-difluorophenyl)azetidin-3-yl (4-(1-methylcyclopropyl)phenyl)carbamate]
≤ 100 nM	≤ 30 nM	O=C1CCC(c2c(F)cc(N3CC(OC(=O)NC4CCCCCC4)C3)cc2F)C(=O)N1 (stereo not shown) [Compound 134, 1-(4-(2,6-dioxopiperidin-3-yl)-3,5-difluorophenyl)azetidin-3-yl cycloheptylcarbamate]
100 to 1000 nM	> 300 nM	O=C1CCC(c2c(F)cc(N3CC(OC(=O)NCC(F)(F)F)C3)cc2F)C(=O)N1 (stereo not shown) [Compound 87, 1-(4-(2,6-dioxopiperidin-3-yl)-3,5-difluorophenyl)azetidin-3-yl (2,2,2-trifluoroethyl)carbamate]
100 to 1000 nM	> 300 nM	O=C1CCC(c2c(F)cc(N3CC(OC(=O)N[C@@H]4CCOC4)C3)cc2F)C(=O)N1 (stereo partly drawn) [Compound 83, 1-(4-(2,6-dioxopiperidin-3-yl)-3,5-difluorophenyl)azetidin-3-yl ((R)-tetrahydrofuran-3-yl)carbamate]
100 to 1000 nM	≤ 30 nM	O=C1CCC(c2c(F)cc(N3CC(NC(=O)NC45CC(c6ccccc6)(C4)C5)C3)cc2F)C(=O)N1 (stereo not shown) [Compound 73, 1-(1-(4-(2,6-dioxopiperidin-3-yl)-3,5-difluorophenyl)azetidin-3-yl)-3-(3-phenylbicyclo[1.1.1]pentan-1-yl)urea]
100 to 1000 nM	≤ 30 nM	O=C1CCC(c2c(F)cc(N3CC(OC(=O)Nc4ccc(F)c(OC(F)F)c4)C3)cc2F)C(=O)N1 (stereo not shown) [Compound 32, 1-(4-(2,6-dioxopiperidin-3-yl)-3,5-difluorophenyl)azetidin-3-yl (3-(difluoromethoxy)-4-fluorophenyl)carbamate]
100 to 1000 nM	30 to 300 nM	CO[C@H]1CC[C@H](NC(=O)OC2CN(c3cc(F)c(C4CCC(=O)NC4=O)c(F)c3)C2)CC1 (stereo partly drawn) [Compound 133, 1-(4-(2,6-dioxopiperidin-3-yl)-3,5-difluorophenyl)azetidin-3-yl ((1R,4R)-4-methoxycyclohexyl)carbamate]
100 to 1000 nM	≤ 30 nM	Cc1cc(C)cc(NC(=O)NC2CN(c3cc(F)c(C4CCC(=O)NC4=O)c(F)c3)C2)c1 (stereo not shown) [Compound 11, 1-(3,5-dimethylphenyl)-3-(1-(4-(2,6-dioxopiperidin-3-yl)-3,5-difluorophenyl)azetidin-3-yl)urea]
≤ 100 nM	≤ 30 nM	CC1(C)CC(NC(=O)OC2CN(c3cc(F)c(C4CCC(=O)NC4=O)c(F)c3)C2)C1 (stereo not shown) [Compound 97, 1-(4-(2,6-dioxopiperidin-3-yl)-3,5-difluorophenyl)azetidin-3-yl (3,3-dimethylcyclobutyl)carbamate]
100 to 1000 nM	> 300 nM	Cc1cc(C)cc(NC(=O)OC2CN(c3ccc(C4CCC(=O)NC4=O)c(Cl)c3)C2)c1 (stereo not shown) [Compound 31, 1-(3-chloro-4-(2,6-dioxopiperidin-3-yl)phenyl)azetidin-3-yl (3,5-dimethylphenyl)carbamate]
100 to 1000 nM	30 to 300 nM	COC(=O)C12CC(NC(=O)OC3CN(c4cc(F)c(C5CCC(=O)NC5=O)c(F)c4)C3)(C1)C2 (stereo not shown) [Compound 75, methyl 3-((((1-(4-(2,6-dioxopiperidin-3-yl)-3,5-difluorophenyl)azetidin-3-yl)oxy)carbonyl)amino)bicyclo[1.1.1]pentane-1-carboxylate]
≤ 100 nM	30 to 300 nM	Cc1c(Cl)cc(NC(=O)OC2CN(c3cc(F)c(C4CCC(=O)NC4=O)c(F)c3)C2)cc1CN1CCOCC1 (stereo not shown) [Compound 5, 1-(4-(2,6-dioxopiperidin-3-yl)-3,5-difluorophenyl) azetidin-3-yl(3-chloro-4-methyl-5-(morpholinomethyl)phenyl)carbamate]
100 to 1000 nM	> 300 nM	Cc1cc(C)cc(NC(=O)NC2CN(c3ccc(C4CCC(=O)NC4=O)c(Cl)c3)C2)c1 (stereo not shown) [Compound 35, 1-(1-(3-chloro-4-(2,6-dioxopiperidin-3-yl)phenyl)azetidin-3-yl)-3-(3,5-dimethylphenyl)urea]
